Data as given in patent publication US20240383875A1, “Benzimidazole Pyridine Derivatives” (Hoffmann-La Roche Inc., priority 2022, published 2024).

Columns and labels:
Type in all cases: biochemical
[1] = biological target: SIK1 (Homo sapiens, UniProt P57059); test: Enzymatic activity assay SIK1, RapidFire mass spectrometry (phosphorylation of CHK-peptide); conditions: RapidFire MS, inhibition of SIK1; read-out: SIK1 RF IC50
Summary of the method: (§1)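 Human SIK1/2/3, 5/0.5/1.5 nM; 12.5 mM HEPES pH 7.0, 10 mM Mg acetate, 0.005% BSA. 30 min cpd pre-inc, + CHK-peptide (10 μM soln) + ATP (100 μM soln), 45 min RT. Formic acid stop; RF-MS phospho ratio; IC50.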

[2] = biological target: SIK2 (Homo sapiens, UniProt Q9H0K1); test: Enzymatic activity assay SIK2, RapidFire mass spectrometry (phosphorylation of CHK-peptide); conditions: RapidFire MS, inhibition of SIK2; read-out: SIK2 RF IC50
SIK2, sequence (Q9H0K1 whole entry): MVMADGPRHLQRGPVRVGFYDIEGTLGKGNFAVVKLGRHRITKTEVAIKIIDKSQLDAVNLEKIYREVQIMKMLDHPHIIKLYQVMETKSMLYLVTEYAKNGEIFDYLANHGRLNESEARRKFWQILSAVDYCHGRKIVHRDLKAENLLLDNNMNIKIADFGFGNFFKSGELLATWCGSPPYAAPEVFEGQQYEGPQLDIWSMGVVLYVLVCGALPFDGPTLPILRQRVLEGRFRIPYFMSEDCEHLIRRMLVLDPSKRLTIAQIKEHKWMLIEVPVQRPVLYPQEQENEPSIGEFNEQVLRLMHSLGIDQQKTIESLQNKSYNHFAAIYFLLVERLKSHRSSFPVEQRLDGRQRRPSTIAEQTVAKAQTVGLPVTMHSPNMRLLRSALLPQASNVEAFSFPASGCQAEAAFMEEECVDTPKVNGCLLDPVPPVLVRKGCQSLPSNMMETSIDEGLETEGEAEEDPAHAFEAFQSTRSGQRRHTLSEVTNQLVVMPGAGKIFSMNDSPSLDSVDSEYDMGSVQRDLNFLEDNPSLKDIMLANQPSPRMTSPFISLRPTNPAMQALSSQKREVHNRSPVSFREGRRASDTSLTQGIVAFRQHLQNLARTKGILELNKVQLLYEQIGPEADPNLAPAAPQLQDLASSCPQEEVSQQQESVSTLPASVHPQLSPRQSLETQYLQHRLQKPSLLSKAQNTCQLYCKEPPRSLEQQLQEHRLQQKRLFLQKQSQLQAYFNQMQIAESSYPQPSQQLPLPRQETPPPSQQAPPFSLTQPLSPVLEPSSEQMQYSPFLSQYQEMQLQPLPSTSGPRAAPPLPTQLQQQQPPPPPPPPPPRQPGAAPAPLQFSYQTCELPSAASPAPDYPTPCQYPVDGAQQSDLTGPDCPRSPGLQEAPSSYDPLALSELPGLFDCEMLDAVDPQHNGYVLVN
Summary of the method: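 Read-out is the summed phospho-species fraction of CHK-peptide by RapidFire mass spectrometry, normalized between DMSO and 1 μM YKL-05-099. The reaction used 0.5 nM SIK2, 100 μM ATP and 10 μM peptide solutions in HEPES pH 7.0/10 mM magnesium acetate for 45 min at ambient temperature.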

[3] = biological target: SIK3 (Homo sapiens, UniProt Q9Y2K2); test: Enzymatic activity assay SIK3, RapidFire mass spectrometry (phosphorylation of CHK-peptide); conditions: RapidFire MS, inhibition of SIK3; read-out: SIK3 RF IC50
SIK3, sequence (Q9Y2K2 whole entry): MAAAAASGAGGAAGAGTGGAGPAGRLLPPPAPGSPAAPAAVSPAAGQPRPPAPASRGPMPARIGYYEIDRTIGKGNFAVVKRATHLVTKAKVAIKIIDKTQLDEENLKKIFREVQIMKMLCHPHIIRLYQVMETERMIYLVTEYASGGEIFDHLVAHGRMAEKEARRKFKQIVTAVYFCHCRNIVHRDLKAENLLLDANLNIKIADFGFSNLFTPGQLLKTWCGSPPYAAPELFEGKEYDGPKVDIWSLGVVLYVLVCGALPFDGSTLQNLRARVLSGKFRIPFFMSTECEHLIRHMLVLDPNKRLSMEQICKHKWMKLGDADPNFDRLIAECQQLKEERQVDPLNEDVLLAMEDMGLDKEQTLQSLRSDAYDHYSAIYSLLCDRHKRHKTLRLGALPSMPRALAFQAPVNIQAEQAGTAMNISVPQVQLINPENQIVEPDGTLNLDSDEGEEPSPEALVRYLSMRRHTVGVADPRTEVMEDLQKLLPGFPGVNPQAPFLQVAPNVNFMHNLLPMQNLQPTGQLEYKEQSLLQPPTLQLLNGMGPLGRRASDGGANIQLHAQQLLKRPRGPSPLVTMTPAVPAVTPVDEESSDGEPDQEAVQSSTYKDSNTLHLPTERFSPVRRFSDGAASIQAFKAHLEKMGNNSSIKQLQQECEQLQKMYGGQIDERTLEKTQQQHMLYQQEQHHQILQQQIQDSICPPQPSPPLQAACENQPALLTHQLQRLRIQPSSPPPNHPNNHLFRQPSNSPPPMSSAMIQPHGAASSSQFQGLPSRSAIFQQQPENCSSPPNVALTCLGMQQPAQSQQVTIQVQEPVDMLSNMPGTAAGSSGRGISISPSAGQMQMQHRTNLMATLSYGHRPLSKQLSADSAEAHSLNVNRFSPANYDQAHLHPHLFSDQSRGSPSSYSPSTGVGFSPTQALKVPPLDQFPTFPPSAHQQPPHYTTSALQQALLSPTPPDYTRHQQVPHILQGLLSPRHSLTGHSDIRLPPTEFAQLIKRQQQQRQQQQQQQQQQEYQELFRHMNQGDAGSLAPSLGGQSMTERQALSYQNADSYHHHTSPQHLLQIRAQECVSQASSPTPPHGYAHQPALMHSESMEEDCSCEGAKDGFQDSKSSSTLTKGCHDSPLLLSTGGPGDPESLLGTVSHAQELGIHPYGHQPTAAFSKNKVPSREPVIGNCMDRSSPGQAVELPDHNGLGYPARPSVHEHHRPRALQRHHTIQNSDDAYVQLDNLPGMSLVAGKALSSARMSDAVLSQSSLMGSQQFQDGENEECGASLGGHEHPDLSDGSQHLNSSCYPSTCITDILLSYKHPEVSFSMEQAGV
Summary of the method: as §1

SIK1, sequence (P57059 whole entry): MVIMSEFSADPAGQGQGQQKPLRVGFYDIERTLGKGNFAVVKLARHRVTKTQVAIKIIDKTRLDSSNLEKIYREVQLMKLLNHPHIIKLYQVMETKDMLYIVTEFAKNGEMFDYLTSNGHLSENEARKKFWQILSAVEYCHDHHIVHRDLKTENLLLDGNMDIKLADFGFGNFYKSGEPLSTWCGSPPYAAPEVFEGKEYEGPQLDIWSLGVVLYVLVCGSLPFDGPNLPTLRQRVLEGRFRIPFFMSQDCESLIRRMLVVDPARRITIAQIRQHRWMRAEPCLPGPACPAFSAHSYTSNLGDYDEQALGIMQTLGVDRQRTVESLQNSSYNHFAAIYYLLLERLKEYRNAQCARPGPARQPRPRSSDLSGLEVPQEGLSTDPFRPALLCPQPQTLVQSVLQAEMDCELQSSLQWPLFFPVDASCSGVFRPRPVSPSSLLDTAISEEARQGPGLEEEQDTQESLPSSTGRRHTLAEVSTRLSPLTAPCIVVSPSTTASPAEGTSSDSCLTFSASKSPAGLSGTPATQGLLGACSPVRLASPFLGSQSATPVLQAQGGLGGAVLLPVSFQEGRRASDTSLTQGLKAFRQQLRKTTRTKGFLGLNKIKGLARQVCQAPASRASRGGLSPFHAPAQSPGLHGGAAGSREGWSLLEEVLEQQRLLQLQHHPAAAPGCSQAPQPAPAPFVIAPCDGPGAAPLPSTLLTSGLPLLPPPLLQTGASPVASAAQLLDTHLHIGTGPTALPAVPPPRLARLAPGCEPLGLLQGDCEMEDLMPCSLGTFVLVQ

IC50 [1] | IC50 [2] | IC50 [3] | Compound
7.82 µM | 0.0497 µM | 0.0528 µM | Cc1ccc(Nc2cc3ncn(-c4ccc([C@@H](C)O)c(-n5nc(C#N)cc5C)n4)c3cc2F)nn1 [Example 237, 1-[6-[6-Fluoro-5-[(6-methylpyridazin-3-yl)amino]benzimidazol-1-yl]-3-[(1R)-1-hydroxyethyl]-2-pyridyl]-5-methyl-pyrazole-3-carbonitrile]
0.072 µM | 0.0045 µM | 0.0053 µM | Cc1cc(C#N)nn1-c1nc(-n2cnc3cc(Nc4ccc(OCCN5CCS(=O)(=O)CC5)nn4)ccc32)ccc1C(C)O (stereo not drawn) [Example 206, 1-[6-[5-[[6-[2-(1,1-Diketo-1,4-thiazinan-4-yl)ethoxy]pyridazin-3-yl]amino]benzimidazol-1-yl]-3-(1-hydroxyethyl)-2-pyridyl]-5-methyl-pyrazole-3-carbonitrile]
0.032 µM | 0.0297 µM | 0.301 µM | Cc1ccc(-c2ccc3ncn(-c4ccc(C(C)O)c(-n5nc(C#N)cc5C)n4)c3c2)nn1 (stereo not drawn) [Example 339, 1-[3-(1-hydroxyethyl)-6-[6-(6-methylpyridazin-3-yl)benzimidazol-1-yl]-2-pyridyl]-5-methyl-pyrazole-3-carbonitrile]
1.76 µM | 0.0399 µM | 0.0086 µM | Cc1ccc(Nc2ccc3c(c2)ncn3-c2ccc(C(C)O)c(-c3cc(F)ncc3C)n2)nn1 (stereo not drawn) [Example 168, 1-[2-(2-Fluoro-5-methyl-4-pyridyl)-6-[5-[(6-methylpyridazin-3-yl)amino]benzimidazol-1-yl]-3-pyridyl]ethanol]
1.2 µM | 0.0224 µM | 0.0036 µM | Cc1ccc(Nc2ccc3c(c2)ncn3-c2ccc(C(C)O)c(N3CCC(C)(C#N)C3)n2)nn1 (stereo not drawn) [Example 121, 1-[3-(1-Hydroxyethyl)-6-[5-[(6-methylpyridazin-3-yl)amino]benzimidazol-1-yl]-2-pyridyl]-3-methyl-pyrrolidine-3-carbonitrile]
0.058 µM | 0.0004 µM | 0.0004 µM | Cc1ccc(Nc2ccc3c(c2)ncn3-c2ccc(C(C)O)c(-c3nn(CC(F)(F)F)nc3C)n2)nn1 (stereo not drawn) [Example 308, 1-[6-[5-[(6-methylpyridazin-3-yl)amino]benzimidazol-1-yl]-2-[5-methyl-2-(2,2,2-trifluoroethyl)triazol-4-yl]-3-pyridyl]ethanol]
1.61 µM | 0.0471 µM | 0.0096 µM | Cc1ccc(Nc2ccc3c(c2)ncn3-c2ccc(C(C)O)c(NCC3(C#N)CC3)n2)nn1 (stereo not drawn) [Example 116, 1-[[[3-(1-Hydroxyethyl)-6-[5-[(6-methylpyridazin-3-yl)amino]benzimidazol-1-yl]-2-pyridyl]amino]methyl]cyclopropanecarbonitrile; formic acid]
5.04 µM | 0.0821 µM | 0.0161 µM | CNC(=O)c1cc(C)n(-c2nc(-n3cnc4cc(Nc5ccc(C)nn5)ccc43)ccc2C(C)O)n1 (stereo not drawn) [Example 152, 1-[3-(1-Hydroxyethyl)-6-[5-[(6-methylpyridazin-3-yl)amino]benzimidazol-1-yl]-2-pyridyl]-N,5-dimethyl-pyrazole-3-carboxamide]
14.5 µM | 0.0322 µM | 0.0371 µM | Cc1cc(C(=O)N(C)C)c(Nc2ccc3c(c2)ncn3-c2ccc(CO)c(-n3nc(C(F)F)cc3C(F)F)n2)nn1 [Example 348, 3-[[1-[6-[3,5-bis(difluoromethyl)pyrazol-1-yl]-5-(hydroxymethyl)-2-pyridyl]benzimidazol-5-yl]amino]-N,N,6-trimethyl-pyridazine-4-carboxamide]
0.051 µM | 0.0025 µM | 0.0084 µM | Cc1nn(CC(F)(F)F)cc1-c1nc(-n2cnc3cc(NC(=O)CN4CCCCC4)ccc32)ccc1C(C)O (stereo not drawn) [Example 358, N-[1-[5-(1-hydroxyethyl)-6-[3-methyl-1-(2,2,2-trifluoroethyl)pyrazol-4-yl]-2-pyridyl]benzimidazol-5-yl]-2-(1-piperidyl)acetamide]
0.617 µM | 0.0342 µM | 0.0242 µM | Cc1cc(S(C)(=O)=O)c(Nc2ccc3c(c2)ncn3-c2ccc(C(C)O)c(-n3nc(C#N)cc3C)n2)nn1 (stereo not drawn) [Example 292, 1-[3-(1-hydroxyethyl)-6-[5-[(6-methyl-4-methylsulfonyl-pyridazin-3-yl)amino]benzimidazol-1-yl]-2-pyridyl]-5-methyl-pyrazole-3-carbonitrile]
0.496 µM | 0.0071 µM | 0.002 µM | CCc1cc(C(F)F)nn1-c1nc(-n2cnc3cc(Nc4ccc(C)nn4)ccc32)ccc1C(C)O (stereo not drawn) [Example 370, 1-[2-[3-(difluoromethyl)-5-ethyl-pyrazol-1-yl]-6-[5-[(6-methylpyridazin-3-yl)amino]benzimidazol-1-yl]-3-pyridyl]ethanol]
2.61 µM | 1.37 µM | 3.5 µM | Cc1ccc(Nc2ccc3ncn(-c4ccc(C(C)O)c(-n5nc(C)cc5C)n4)c3c2)nn1 (stereo not drawn) [Example 107, 1-[2-(3,5-Dimethylpyrazol-1-yl)-6-[6-[(6-methylpyridazin-3-yl)amino]benzimidazol-1-yl]-3-pyridyl]ethanol; formic acid]
0.249 µM | 0.002 µM | 0.0047 µM | COC(C)Cn1cc(-c2nc(-n3cnc4cc(Nc5ccc(C)nn5)ccc43)ccc2C(C)O)c(C)n1 (stereo not drawn) [Example 278, 1-[2-[1-(2-methoxypropyl)-3-methyl-pyrazol-4-yl]-6-[5-[(6-methylpyridazin-3-yl)amino]benzimidazol-1-yl]-3-pyridyl]ethanol]
0.453 µM | 0.292 µM | 1.58 µM | Cc1cc(C#N)nn1-c1nc(-n2cnc3ccc(CN4CCCC4=O)cc32)ccc1C(C)O (stereo not drawn) [Example 212, 1-[3-(1-Hydroxyethyl)-6-[6-[(2-oxopyrrolidin-1-yl)methyl]benzimidazol-1-yl]-2-pyridyl]-5-methyl-pyrazole-3-carbonitrile]
0.087 µM | 0.07 µM | 0.213 µM | Cc1cc(C#N)nn1-c1nc(-n2cnc3cc(F)c(N[C@@H]4CNC[C@@H]4F)cc32)ccc1C(C)O (stereo in doubt) [Example 188, 1-[6-[5-fluoro-6-[[(3R,4S)-4-fluoropyrrolidin-3-yl]amino]benzimidazol-1-yl]-3-(1-hydroxyethyl)pyridin-2-yl]-5-methylpyrazole-3-carbonitrile]
0.373 µM | 0.259 µM | 1.4 µM | COc1cc2ncn(-c3ccc(CO)c(NCCCCCO)n3)c2cc1OC [Example 32, 5-((6-(5,6-Dimethoxy-1H-benzo[d]imidazol-1-yl)-3-(hydroxymethyl)pyridin-2-yl)amino)pentan-1-ol]
0.008 µM | 0.0029 µM | 0.0117 µM | Cc1cc(C(F)F)nn1-c1nc(-n2cnc3cc(F)c(Nc4ccc(F)c(F)c4F)cc32)ccc1C(C)O (stereo not drawn) [Example 364, 1-[2-[3-(difluoromethyl)-5-methyl-pyrazol-1-yl]-6-[5-fluoro-6-(2,3,4-trifluoroanilino)benzimidazol-1-yl]-3-pyridyl]ethanol]
5.11 µM | 0.15 µM | 0.0373 µM | Cc1ccc(Nc2ccc3c(c2)ncn3-c2ccc(C(C)O)c(N3C[C@@H](C#N)C[C@H]3C)n2)nn1 (stereo partly drawn) [Example 254, (3S,5R)-1-[3-(1-hydroxyethyl)-6-[5-[(6-methylpyridazin-3-yl)amino]benzimidazol-1-yl]-2-pyridyl]-5-methyl-pyrrolidine-3-carbonitrile]
> 30 µM | 1.57 µM | 0.335 µM | Cc1ccc(Nc2ccc3c(c2)ncn3-c2ccc(C(C)O)c(-c3cc(C(F)(F)F)n[nH]c3=O)n2)nn1 (stereo not drawn) [Example 223, 5-[3-(1-Hydroxyethyl)-6-[5-[(6-methylpyridazin-3-yl)amino]benzimidazol-1-yl]-2-pyridyl]-3-(trifluoromethyl)-1H-pyridazin-6-one; formic acid]
0.869 µM | 0.0211 µM | 0.0025 µM | Cc1ccc(Nc2ccc3ncn(-c4ccc(C(C)O)c(N5CC[C@@H](C#N)C5)n4)c3c2)nn1 (stereo partly drawn) [Example 106, (3R)-1-[3-(1-Hydroxyethyl)-6-[6-[(6-methylpyridazin-3-yl)amino]benzimidazol-1-yl]-2-pyridyl]pyrrolidine-3-carbonitrile]
1.12 µM | 0.0214 µM | 0.0034 µM | Cc1ccc(Nc2ccc3c(c2)ncn3-c2ccc(C(C)O)c(N3CC(C(F)F)C4(CC4)C3)n2)nn1 (stereo not drawn) [Example 325, 1-[2-[7-(difluoromethyl)-5-azaspiro[2.4]heptan-5-yl]-6-[5-[(6-methylpyridazin-3-yl)amino]benzimidazol-1-yl]-3-pyridyl]ethanol]
1.1 µM | 0.0192 µM | 0.0035 µM | Cc1ccc(Nc2ccc3c(c2)ncn3-c2ccc(C(C)O)c(N3CC4CC4(C#N)C3)n2)nn1 (stereo not drawn) [Example 321, 3-[3-(1-hydroxyethyl)-6-[5-[(6-methylpyridazin-3-yl)amino]benzimidazol-1-yl]-2-pyridyl]-3-azabicyclo[3.1.0]hexane-1-carbonitrile]
0.326 µM | 0.268 µM | 0.713 µM | COc1cc2ncn(-c3ccc(CO)c(N4CCCCC4)n3)c2cc1OC [Example 28, (6-(5,6-Dimethoxy-1H-benzo[d]imidazol-1-yl)-2-(piperidin-1-yl)pyridin-3-yl)methanol]

Compound | IC50 [1] | IC50 [2] | IC50 [3]
N-[1-[6-[3-(difluoromethyl)-5-methyl-pyrazol-1-yl]-5-(1-hydroxyethyl)-2-pyridyl]-6-fluoro-benzimidazol-5-yl] cyclopropanecarboxamide [Example 361] | 0.321 µM | 0.0639 µM | 0.0511 µM
